We go through three molecules from paper PMC6099740, “Design, Synthesis and Biological Evaluation of 6,7-Disubstituted-4-phenoxyquinoline Derivatives Bearing Pyridazinone Moiety as c-Met Inhibitors” (Molecules : A Journal of Synthetic Chemistry and Natural …, 2018).

“Also recorded” adds a separate entry of the source.

In data set [1] the target is T1, c-Met kinase (Homo sapiens, UniProt P08581). The arrangement: method as in PMID 28384549. The note with it: previous research; cited from earlier work.
T1 sequence (P08581 25-1390): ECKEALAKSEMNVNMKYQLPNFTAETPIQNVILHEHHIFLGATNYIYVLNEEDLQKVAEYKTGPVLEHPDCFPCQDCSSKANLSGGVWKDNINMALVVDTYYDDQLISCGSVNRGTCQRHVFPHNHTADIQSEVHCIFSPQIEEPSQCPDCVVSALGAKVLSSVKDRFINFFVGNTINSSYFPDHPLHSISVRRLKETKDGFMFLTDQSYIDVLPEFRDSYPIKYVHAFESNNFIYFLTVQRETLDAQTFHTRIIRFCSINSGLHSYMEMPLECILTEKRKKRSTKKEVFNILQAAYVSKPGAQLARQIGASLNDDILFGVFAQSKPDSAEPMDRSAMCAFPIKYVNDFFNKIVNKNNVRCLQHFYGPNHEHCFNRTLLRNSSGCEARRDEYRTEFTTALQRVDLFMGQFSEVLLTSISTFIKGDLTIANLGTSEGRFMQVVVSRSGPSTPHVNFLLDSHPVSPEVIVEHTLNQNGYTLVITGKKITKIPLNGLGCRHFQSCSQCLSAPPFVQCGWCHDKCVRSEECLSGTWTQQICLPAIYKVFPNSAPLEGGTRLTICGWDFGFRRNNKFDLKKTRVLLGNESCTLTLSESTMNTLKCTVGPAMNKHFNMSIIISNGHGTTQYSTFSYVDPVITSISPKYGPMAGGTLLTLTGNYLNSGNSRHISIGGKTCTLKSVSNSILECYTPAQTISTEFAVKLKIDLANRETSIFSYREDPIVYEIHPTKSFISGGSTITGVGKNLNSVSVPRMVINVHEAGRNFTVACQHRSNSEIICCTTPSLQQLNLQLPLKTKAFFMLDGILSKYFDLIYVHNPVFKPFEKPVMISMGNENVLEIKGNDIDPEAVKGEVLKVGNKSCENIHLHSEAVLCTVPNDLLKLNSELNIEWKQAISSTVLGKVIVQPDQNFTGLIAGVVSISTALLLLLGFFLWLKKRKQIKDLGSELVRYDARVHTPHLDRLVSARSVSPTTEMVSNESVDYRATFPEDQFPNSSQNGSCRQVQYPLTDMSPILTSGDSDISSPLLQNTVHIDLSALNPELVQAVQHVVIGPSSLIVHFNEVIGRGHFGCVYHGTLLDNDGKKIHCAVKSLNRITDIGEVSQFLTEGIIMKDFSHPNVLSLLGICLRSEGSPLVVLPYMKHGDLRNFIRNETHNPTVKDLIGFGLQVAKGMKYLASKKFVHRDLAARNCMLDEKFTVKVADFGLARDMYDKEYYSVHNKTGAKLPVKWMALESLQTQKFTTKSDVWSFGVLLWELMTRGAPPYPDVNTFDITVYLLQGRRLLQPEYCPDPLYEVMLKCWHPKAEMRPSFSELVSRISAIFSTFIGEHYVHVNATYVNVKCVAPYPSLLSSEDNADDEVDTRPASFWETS
The next data set has as its system A549 cells. Briefly: MTT cytotoxicity assay, A549. Type of data set: cell-based. The settings on record: Homo sapiens, 72 h. The protocol: (§1) The results expressed as IC50 values were summarized in Table 1, and the values were the average of at least two independent experiments.
(§2) The cancer cell lines were cultured in minimum essential medium (MEM) supplement with 10% fetal bovine serum (FBS). […] The test compounds at indicated final concentrations were added to the culture medium and the cell cultures were continued for 72 h. […] All of the compounds were tested two times in each of the cell lines. The results expressed as inhibition rates or IC50 (half-maximal inhibitory concentration) were the averages of two determinations and calculated by using the Bacus Laboratories Incorporated Slide Scanner (Bliss) software (the Bacus Laboratories Inc. Slide Scanner (BLISS) system, Lombard, IL, USA)..

For data set [2], the system named is HepG2 cells. The data set is described as follows: MTT cytotoxicity assay, HepG2. Type of data set: cell-based. The note with it: Homo sapiens, 72 h. The protocol:
as §1
(§3) The cancer cell lines were cultured in minimum essential medium (MEM) supplement with 10% fetal bovine serum (FBS). Approximately 4 × 10^3 cells, suspended in MEM medium, were plated onto each well of a 96-well plate and incubated in 5% CO2 at 37 °C for 24 h. The test compounds at indicated final concentrations were added to the culture medium and the cell cultures were continued for 72 h. Fresh MTT was added to each well at a terminal concentration of 5 μg/mL and incubated with cells at 37 °C for 4 h. The formazan crystals were dissolved in 100 μL DMSO each well, and the absorbency at 492 nm (for absorbance of MTT formazan) and 630 nm (for the reference wavelength) was measured with the ELISA reader. All of the compounds were tested two times in each of the cell lines. The results expressed as inhibition rates or IC50 (half-maximal inhibitory concentration) were the averages of two determinations and calculated by using the Bacus Laboratories Incorporated Slide Scanner (Bliss) software (the Bacus Laboratories Inc. Slide Scanner (BLISS) system, Lombard, IL, USA)..

In another data set the test system is MCF-7 cells. Briefly: MTT cytotoxicity assay, MCF-7. The class given is cell-based. The note with it: Homo sapiens, MCF7, 72 h. As to the method:
as §1, §2
On the technique in general: Tetrazolium dyes change colour on reduction, which living cells bring about.

Another data set relates to A549, HepG2, MCF-7. The data set is described as follows: MTT cytotoxicity assay, range over the three cancer cell lines. Type of data set: cell-based. The settings on record: Homo sapiens; range over A549, HepG2 and MCF-7. As to the method:
as §1, §3

Data set [3] has as its target T1, c-Met kinase. The data set is described as follows: c-Met kinase inhibition assay (HTRF; mobility shift). For orientation: In TR-FRET formats the signal depends on donor and acceptor labels being close together.
Method: All kinase assays were performed in 96-well plates in a 50 µL reaction volume. The kinase buffer contains 50 mM HEPES, pH 7.5, 10 mM MgCl2, 0.0015% Brij-35 and 2 mM DTT. The stop buffer contains 100 mM HEPES, pH 7.5, 0.015% Brij-35, 0.2% Coating Reagent 3 and 50 mM EDTA. Dilute the compounds to 500 µM by 100% DMSO, then transfer 10 µL of compound to a new 96-well plate as the intermediate plate, add 90 µL kinase buffer to each well. Transfer 5 µL of each well of the intermediate plate to 384-well plates. The following amounts of enzyme and substrate were used per well: kinase base buffer, FAM-labeled peptide, ATP and enzyme solution. Wells containing the substrate, enzyme, DMSO without compound were used as DMSO control. Wells containing just the substrate without enzyme were used as low control. Incubate at room temperature for 10 min. Add 10 µL peptide solution to each well. […] At last collect data on Caliper program and convert conversion values to inhibition values. Percent inhibition = (max − conversion)/(max − min) × 100. ‘max’ stands for DMSO control; ‘min’ stands for low control [20].
For data set [4], the system named is HepG2 cells. The data set is described as follows: Acridine orange (AO) single staining, nuclear morphology. Type of data set: cell-based, human. The note with it: 0.01 μM, 12 h. The protocol: Potential compound 53 was selected for validation and evaluation of inhibition of cell proliferation and induction of apoptosis in HepG2 cells. […] Moreover, from the results of the inverted fluorescence microscopy, it can be observed that the cells in the control group (Figure 3a) were full and the edge was clear, which was added without nothing.
The cancer cell lines were cultured in minimum essential medium (MEM) supplement with 10% fetal bovine serum (FBS). Approximately 2 × 10^4 cells, suspended in MEM medium, were plated onto each well of a 24-well plate and incubated in 5% CO2 at 37 °C for 24 h. Then the medium was removed, and 1 mL drug-free medium and 1mL medium with the test compound 7c at indicated final concentrations were added to each well in control group and test group respectively and the cell cultures were continued for 12 h. While the medium was removed, AO-PBS buffer was added to each well at a terminal concentration of 10 µg/mL and stained in dark for 10 min. Each well was washed with PBS buffer three times and observed under a fluorescence microscope.
Figure 3 The cell morphology of HepG2 cells of the control and test groups. (a) HepG2 cells treated without any compounds; (b) HepG2 cells were treated with 0.01 µM for 12 h; Changes of nuclear morphology were determined by AO staining.

For the molecule `Cc1cc(=O)n(-c2ccc(F)cc2)nc1C(=O)Nc1ccc(Oc2ccnc3[nH]ccc23)c(F)c1` [Compound 7], the “enzyme activity IC50 values” at c-Met kinase [1] was “in the nanomole level”.
`COc1cc2c(Oc3ccc(NC(=O)c4nn(-c5ccc(Cl)c(C(F)(F)F)c5)ccc4=O)cc3F)ccnc2cc1OCCCN1CCN(C)CC1` [Compound 52, 1-(4-Chloro-3-(trifluoromethyl)phenyl)-N-(3-fluoro-4-((6-methoxy-7-(3-(4-methylpiperazin-1-yl)propoxy)quinolin-4-yl)oxy)phenyl)-4-oxo-1,4-dihydropyridazine-3-carboxamide] came in with a melting point of 211.7 to 212.6 °C. The same molecule yielded an IC50 in the data set with A549 cells of 40 ± 10 nM. The molecule also displayed an IC50 in the data set on HepG2 cells [2] of 330 ± 30 nM. In the data set on MCF-7 cells, this molecule came in with an IC50 of 150 ± 20 nM. For the same molecule, in the data set on A549, HepG2, MCF-7, the IC50 was in the range of 2 to 1030 nM. The concentration for half-maximal inhibition (IC50) at c-Met kinase [3] stood at 0.8 nM.
Turning to `COc1cc2c(Oc3ccc(NC(=O)c4nn(-c5ccccc5)ccc4=O)cc3F)ccnc2cc1OCCCN1CCN(C)CC1` [Compound 53, N-(3-Fluoro-4-((6-methoxy-7-(3-(4-methylpiperazin-1-yl)propoxy)quinolin-4-yl)oxy)phenyl)-4-oxo-1-phenyl-1,4-dihydropyridazine-3-carboxamide], the IC50 in the data set on A549 cells was 3 ± 1 nM; in the data set on HepG2 cells [2], 490 ± 30 nM; with MCF-7 cells, 6 ± 1 nM; in the data set with A549, HepG2, MCF-7 it was 2 to 1030 nM; on c-Met kinase [3], 0.6 nM. Moreover, the “Inhibition of proliferation and induction of apoptosis (AO staining)” value in the data set on HepG2 cells [4] is “significantly inhibited HepG2 cells proliferation and induced apoptosis; also recorded: could induce remarkable apoptosis of HepG2 cells”.

By IC50 is commonly meant the concentration at which inhibition is half-maximal. In general, melting point refers to the temperature of the solid-liquid transition.
